Data: US20040248837A1, “Methods of treating pulmonary fibrotic disorders” (priority 2002, published 2004)

Key:
ITGβ6 = ITGβ6 (β6 integrin) gene transcription in lung tissue, RT-PCR; format: in vivo, C57BL/6 mice; conditions: B6 mice, i.v., 24 hrs; Pam3Cys 25 μg, polyI:C 25 μg, LPS 5 μg, TOG 2 mg, R848 18 μg, ISS 20 μg
Protocol: Twenty μg ISS was injected intravenously (i.v.) into C57BL/6 mice. At 0 hours, 2 hours, 4 hours, 8 hours, 16 hours, and 24 hours after injection, mice were killed and total RNA was isolated from lung. Transcription levels of IGFβ6 (β6 integrin) was analyzed by reverse transcription-polymerase chain reaction (RT-PCR). TNFα, IDO (2,3-indoleaminedioxygenase) and TGFβ1 were used as controls. […] Transcription of the other subunit of ITGαvβ6 (or αvβ6 integrin), i.e., ITGαv, was also analyzed by RT-PCR.
The long-term effect of ISS on gene expression in lung tissue was investigated. Twenty μg ISS was injected i.v. into C57 BL/6 mice. At 0 days, 1 day, 2 days, 3 days, 4 days, and 5 days post injection, mice were killed and total RNA was isolated from lung tissue. Transcription levels were analyzed by RT-PCR. […] The suppression of TGF-β activity was observed indirectly by the induction of MMP-12 (elastase) gene. Under normal conditions, MMP-12 expression is suppressed by TGF-β. […] In contrast, no change in mRNA levels of MMP-9 (gelatinase) was observed.
The kinetics of suppression of gene expression by ISS was analyzed. […] The level of ITGαv mRNA dropped to 20% of the initial levels within 30 minutes after i.v. injection of ISS.
MyD88 is a component of the TLR signaling pathway. It was shown that down-regulation of ITGβ6 gene transcription by ISS in lung tissue is dependent on MyD88. ISS suppressed ITGβ6 gene transcription in normal control mice, but not in MyD88^−/− mice.
Suppression of ITGβ6 gene transcription in lung tissue by a variety of TLR ligands was examined. Six different TLR ligands (Pam3Cys, 25 μg; polyI:C, 25 μg; LPS, 5 μg; TOG, 2 mg; R848, 18 μg; and ISS, 20 μg) were individually injected i.v. into B6 mice. After 24 hrs, mice were sacrificed and total RNA was isolated form lung tissue, and the level of ITGβ6 gene transcription in lung tissue was analyzed by RT-PCR. Each TLR agonist inhibited ITGβ6 gene transcription in lung tissue.

[1] = tested on: mice repetitively challenged with OVA; assay: Airway responsiveness to MCh in vivo (Penh, whole body plethysmograph); parameters: species or system BALB/c mice; conditions: pilot experiments
Protocol: Female BALB/c mice (16 mice/group) (The Jackson Laboratory, Bar Harbor, Me.) were used when they reached 8-10 wk of age. Mice were immunized s.c. on days 0, 7, 14, and 21 with 25 μg of OVA (OVA, grade V; Sigma) adsorbed to 1 mg of alum (Aldrich) in 200 μl normal saline. Intranasal OVA challenges (20 ng/50 μl in PBS) were administered on days 27, 29 and 31 under isoflurane (Vedco, Inc. St Joseph, Mo.) anesthesia. Intranasal OVA challenges were then repeated twice a week for 1, 3, or 6 months (see FIG. 1 for protocol). Age and sex matched control mice were sensitized but not challenged with OVA during the 1, 3, or 6 month study. Mice were sacrificed 24 hours after the final OVA challenge and bronchoalveolar lavage fluid and lungs were analyzed. […]
Airway responsiveness was assessed 24 hrs after the final OVA challenge (after 1, 3, or 6 months of repetitive OVA challenges), using a single chamber whole body plethysmograph obtained from Buxco (Troy, N.Y.), as previously described in this laboratory. […] The enhanced pause (Penh) correlates closely with pulmonary resistance measured by conventional two-chamber plethysmography in ventilated mice. […] The Penh values measured during each 3-min sequence were averaged and are expressed for each MCh concentration as the percentage of baseline Penh values following PBS exposure (Broide et al. supra).

[2] = tested on: mice repetitively challenged with OVA; assay: BAL eosinophil counts; format: in vivo, BALB/c mice; conditions: pilot experiments
Protocol: (§1) Female BALB/c mice (16 mice/group) (The Jackson Laboratory, Bar Harbor, Me.) were used when they reached 8-10 wk of age. Mice were immunized s.c. on days 0, 7, 14, and 21 with 25 μg of OVA (OVA, grade V; Sigma) adsorbed to 1 mg of alum (Aldrich) in 200 μl normal saline. Intranasal OVA challenges (20 ng/50 μl in PBS) were administered on days 27, 29 and 31 under isoflurane (Vedco, Inc. St Joseph, Mo.) anesthesia. Intranasal OVA challenges were then repeated twice a week for 1, 3, or 6 months (see FIG. 1 for protocol). Age and sex matched control mice were sensitized but not challenged with OVA during the 1, 3, or 6 month study. Mice were sacrificed 24 hours after the final OVA challenge and bronchoalveolar lavage fluid and lungs were analyzed.
Throughout the Examples, therapeutic nucleic acids are referred to as “ISS.” ISS or diluent control was administered intraperitoneally (i.p.) starting 1 day before the first intranasal OVA challenge on day 26, and then continued every other week 1 day before intranasal challenges for 1, 3, or 6 months (see FIG. 1). All animal experimental protocols were approved by the University of California, San Diego Animal Subjects Committees. […]

[3] = tested on: mice repetitively challenged with OVA; assay: Quantification of airway remodeling (pilot experiments); format: in vivo, BALB/c mice
Protocol: as §1
Different groups of mice (16 mice/group) were administered i.p. endotoxin-free (<1 ng/mg DNA) phosphorothioate ISS-ODN (5′-[…]-3′; SEQ ID NO:01) (Trilink, San Diego, Calif.) (100 μg in 100 μl of sterile, endotoxin-free PBS), M-ODN (5′-[…]-3′; SEQ ID NO:02) which lacks the CpG motif present in ISS, or diluent control starting 1 day before the first intranasal OVA challenge on day 27, and then continuing every other week 1 day before intranasal challenges for 1, 3, or 6 months. […]

[4] = tested on: mice repetitively challenged with OVA; conditions: previous studies in our laboratory; administered 1 day before OVA challenge; cited from earlier work

Molecule	ITGβ6 gene transcription in lung tissue (ITGβ6)	OVA induced airway responsiveness [1]	OVA induced eosinophilic inflammation [2]	features of airway remodeling [3]	OVA induced airway hyperreactivity [4]
polyI:C	inhibited	–	–	–	–
tripalmitoyl-S-glyceryl cysteine [Pam3Cys]	inhibited	–	–	–	–
M-ODN: 5′-TGACTGTGAAGGTTGGAGATGA-3′ (SEQ ID NO:02), which lacks the CpG motif present in ISS (DNA, backbone and methylation of C not given here)	–	did not inhibit	did not inhibit	did not inhibit	not
Nc1nc2c(sc(=O)n2[C@@H]2O[C@H](CO)[C@@H](O)[C@H]2O)c(=O)[nH]1 [TOG, 7-thia-8-oxo-guanosine]	inhibited	–	–	–	–
